In PubChem BioAssay AID1259407 (Chemical Carcinogenesis Research Information System (CCRIS), 2018):
Activity calls are given as the source filed them. How the calls were made is not given here.

System: CCRIS mutagenicity, Ames/micronucleus/aberration tests
Test: CCRIS mutagenicity studies
[1] = Test System: AMES SALMONELLA TYPHIMURIUM, Strain/Indicator: TA98, Metabolic Activation: NONE, Method: PREINCUBATION
[2] = Test System: AMES SALMONELLA TYPHIMURIUM, Strain/Indicator: TA100, Metabolic Activation: NONE, Method: PREINCUBATION
[3] = Test System: AMES SALMONELLA TYPHIMURIUM, Strain/Indicator: TA100, Metabolic Activation: RAT, LIVER, S-9, PCB, Method: PREINCUBATION
[4] = Test System: AMES SALMONELLA TYPHIMURIUM, Strain/Indicator: TA98, Metabolic Activation: NONE, Method: STANDARD PLATE
[5] = Test System: AMES SALMONELLA TYPHIMURIUM, Strain/Indicator: TA100, Metabolic Activation: NONE, Method: STANDARD PLATE

Measured: mutagenic call

COc1ccc2c(c1)c(CC(=O)O)c(C)n2C(=O)c1ccc(Cl)cc1
active: [3] active; positive
inactive: Test System: AMES SALMONELLA TYPHIMURIUM, Strain/Indicator: TA98, Metabolic Activation: GUINEA PIG, LIVER, S-9, PCB, Method: PREINCUBATION inactive; negative | Test System: AMES SALMONELLA TYPHIMURIUM, Strain/Indicator: TA98, Metabolic Activation: HAMSTER, LIVER, S-9, PCB, Method: PREINCUBATION inactive; negative | Test System: AMES SALMONELLA TYPHIMURIUM, Strain/Indicator: TA98, Metabolic Activation: MOUSE, LIVER, S-9, PCB, Method: PREINCUBATION inactive; negative | [1] inactive; negative | Test System: AMES SALMONELLA TYPHIMURIUM, Strain/Indicator: TA98, Metabolic Activation: RAT, LIVER, S-9, PCB, Method: PREINCUBATION inactive; negative | Test System: AMES SALMONELLA TYPHIMURIUM, Strain/Indicator: TA98, Metabolic Activation: RAT, LIVER, S-9, PCB, Method: STANDARD PLATE inactive; negative | Test System: AMES SALMONELLA TYPHIMURIUM, Strain/Indicator: TA100, Metabolic Activation: GUINEA PIG, LIVER, S-9, PCB, Method: PREINCUBATION inactive; negative | Test System: AMES SALMONELLA TYPHIMURIUM, Strain/Indicator: TA100, Metabolic Activation: HAMSTER, LIVER, S-9, PCB, Method: PREINCUBATION inactive; negative | Test System: AMES SALMONELLA TYPHIMURIUM, Strain/Indicator: TA100, Metabolic Activation: MOUSE, LIVER, S-9, PCB, Method: PREINCUBATION inactive; negative | [2] inactive; negative | Test System: AMES SALMONELLA TYPHIMURIUM, Strain/Indicator: TA100, Metabolic Activation: RAT, LIVER, S-9, PCB, Method: STANDARD PLATE inactive; negative | Test System: AMES SALMONELLA TYPHIMURIUM, Strain/Indicator: TA1537, Metabolic Activation: RAT, LIVER, S-9, PCB, Method: STANDARD PLATE inactive; negative | Test System: AMES SALMONELLA TYPHIMURIUM, Strain/Indicator: TA1538, Metabolic Activation: RAT, LIVER, S-9, PCB, Method: STANDARD PLATE inactive; negative | Test System: E. COLI, Strain/Indicator: WP2 UVRA, Metabolic Activation: RAT, LIVER, S-9, PCB, Method: STANDARD PLATE inactive; negative

COc1cc(O)c2c(=O)c3c(OC)cc4c(c3oc2c1OC)[C@@H]1C=CO[C@@H]1O4
inactive: Test System: AMES SALMONELLA TYPHIMURIUM, Strain/Indicator: TA98, Metabolic Activation: RAT, LIVER, S-9, PHENOBARBITAL, Method: STANDARD PLATE inactive; negative
active: Test System: AMES SALMONELLA TYPHIMURIUM, Strain/Indicator: TA100, Metabolic Activation: RAT, LIVER, S-9, PHENOBARBITAL, Method: STANDARD PLATE active; positive

Cc1occc(=O)c1[O-].Cc1occc(=O)c1[O-].Cc1occc(=O)c1[O-].[Al+3]
inactive: Test System: AMES SALMONELLA TYPHIMURIUM, Strain/Indicator: TA92, Metabolic Activation: NONE, Method: STANDARD PLATE inactive; negative | [4] inactive; negative | [5] inactive; negative | Test System: AMES SALMONELLA TYPHIMURIUM, Strain/Indicator: TA104, Metabolic Activation: NONE, Method: STANDARD PLATE inactive; negative

c1ccc2c(c1)Nc1ccccc1S2
inactive: Test System: AMES SALMONELLA TYPHIMURIUM, Strain/Indicator: TA98, Metabolic Activation: HAMSTER, LIVER, S-9, AROCLOR 1254 (10%), Method: PREINCUBATION inactive; negative | [1] inactive; negative | Test System: AMES SALMONELLA TYPHIMURIUM, Strain/Indicator: TA98, Metabolic Activation: NONE, Method: SPOT TEST inactive; negative | Test System: AMES SALMONELLA TYPHIMURIUM, Strain/Indicator: TA98, Metabolic Activation: RAT, LIVER, S-9, AROCLOR 1254 (10%), Method: PREINCUBATION inactive; negative | Test System: AMES SALMONELLA TYPHIMURIUM, Strain/Indicator: TA100, Metabolic Activation: HAMSTER, LIVER, S-9, AROCLOR 1254 (10%), Method: PREINCUBATION inactive; negative | [2] inactive; negative | Test System: AMES SALMONELLA TYPHIMURIUM, Strain/Indicator: TA100, Metabolic Activation: RAT, LIVER, S-9, AROCLOR 1254 (10%), Method: PREINCUBATION inactive; negative | Test System: AMES SALMONELLA TYPHIMURIUM, Strain/Indicator: TA1535, Metabolic Activation: HAMSTER, LIVER, S-9, AROCLOR 1254 (10%), Method: PREINCUBATION inactive; negative | Test System: AMES SALMONELLA TYPHIMURIUM, Strain/Indicator: TA1535, Metabolic Activation: NONE, Method: PREINCUBATION inactive; negative | Test System: AMES SALMONELLA TYPHIMURIUM, Strain/Indicator: TA1535, Metabolic Activation: RAT, LIVER, S-9, AROCLOR 1254 (10%), Method: PREINCUBATION inactive; negative | Test System: AMES SALMONELLA TYPHIMURIUM, Strain/Indicator: TA1537, Metabolic Activation: HAMSTER, LIVER, S-9, AROCLOR 1254 (10%), Method: PREINCUBATION inactive; negative | Test System: AMES SALMONELLA TYPHIMURIUM, Strain/Indicator: TA1537, Metabolic Activation: NONE, Method: PREINCUBATION inactive; negative | Test System: AMES SALMONELLA TYPHIMURIUM, Strain/Indicator: TA1537, Metabolic Activation: RAT, LIVER, S-9, AROCLOR 1254 (10%), Method: PREINCUBATION inactive; negative

O=[N+]([O-])c1ccc2c(c1)CCc1c-2ccc2c1CCCC2
active: Test System: AMES SALMONELLA TYPHIMURIUM, Strain/Indicator: TA98(1,8-DNP6), Metabolic Activation: NONE active; positive | Test System: AMES SALMONELLA TYPHIMURIUM, Strain/Indicator: TA98(1,8-DNP6), Metabolic Activation: RAT, LIVER, S-9, AROCLOR 1254 active; positive | Test System: AMES SALMONELLA TYPHIMURIUM, Strain/Indicator: TA98(NR), Metabolic Activation: NONE active; positive | Test System: AMES SALMONELLA TYPHIMURIUM, Strain/Indicator: TA98(NR), Metabolic Activation: RAT, LIVER, S-9, AROCLOR 1254 active; positive | Test System: AMES SALMONELLA TYPHIMURIUM, Strain/Indicator: TA98, Metabolic Activation: NONE active; positive | Test System: AMES SALMONELLA TYPHIMURIUM, Strain/Indicator: TA98, Metabolic Activation: RAT, LIVER, S-9, AROCLOR 1254 active; positive | Test System: AMES SALMONELLA TYPHIMURIUM, Strain/Indicator: TA100(NR), Metabolic Activation: RAT, LIVER, S-9, AROCLOR 1254 active; positive | Test System: AMES SALMONELLA TYPHIMURIUM, Strain/Indicator: TA100, Metabolic Activation: NONE active; positive | Test System: AMES SALMONELLA TYPHIMURIUM, Strain/Indicator: TA100, Metabolic Activation: RAT, LIVER, S-9, AROCLOR 1254 active; positive | Test System: AMES SALMONELLA TYPHIMURIUM, Strain/Indicator: TA104, Metabolic Activation: NONE active; positive | Test System: AMES SALMONELLA TYPHIMURIUM, Strain/Indicator: TA104, Metabolic Activation: RAT, LIVER, S-9, AROCLOR 1254 active; positive
inactive: Test System: AMES SALMONELLA TYPHIMURIUM, Strain/Indicator: TA100(NR), Metabolic Activation: NONE inactive; negative

CC(=O)OCCCCCCCCONC(=O)c1ccccc1
active: [4] active; positive | [5] active; positive
inactive: Test System: AMES SALMONELLA TYPHIMURIUM, Strain/Indicator: TA100, Metabolic Activation: RAT, S-9, AROCLOR, Method: STANDARD PLATE inactive; negative

CC(C)(C)OC(=O)CN=[N+]=[N-]
active: [3] active; positive

[CH3][Hg][CH3]
inactive: Test System: CHINESE HAMSTER G10, Strain/Indicator: G10/6-THIOGUANINE, Metabolic Activation: NONE inactive; negative | Test System: CHINESE HAMSTER G12, Strain/Indicator: G12/6-THIOGUANINE, Metabolic Activation: NONE inactive; negative | Test System: CHINESE HAMSTER V-79, Strain/Indicator: V-79/6-THIOGUANINE, Metabolic Activation: NONE inactive; negative
active: End Point: IN VITRO CHROMOSOMAL ABERRATIONS, Test System: HUMAN PERIPHERAL LYMPHOCYTES, Metabolic Activation: NONE active; positive (structural changes and ploidy)

CCOC(=O)NC
active: Test System: MOUSE LYMPHOMA, Strain/Indicator: L5178Y (TK+/TK-), Metabolic Activation: RAT, LIVER, S-9, AROCLOR 1254, Method: SUSPENSION/PLATE active; positive
inactive: Test System: MOUSE LYMPHOMA, Strain/Indicator: L5178Y (TK+/TK-), Metabolic Activation: NONE, Method: SUSPENSION/PLATE inactive; negative
